These results are taken from patent US10214512B2, “Factor XIA inhibitors” (MERCK SHARP & DOHME CORP., priority 2015, dated 2019).

The target in test [1] is purified human Factor XIa (Homo sapiens (Human), UniProt P03951). Briefly: Factor XIa Assay. In kind it is biochemical. Particulars: purified human Factor XIa 40 pM; substrate Z-Gly-Pro-Arg-AFC 100 μM; 50 mM HEPES pH 7.4; read-out: Human FXIa Ki. The method, boiled down: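 Ki obtained from the dependence of uninhibited/inhibited initial-velocity ratio on inhibitor concentration, under a competitive-inhibition model. Reactions used 100 μM Z-Gly-Pro-Arg-AFC and 40 pM final human Factor XIa in pH 7.4 HEPES buffer with NaCl, CaCl2 and PEG 8000; run at rt or 37° C following pre-equilibration.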
purified human Factor XIa, sequence (P03951 388-625): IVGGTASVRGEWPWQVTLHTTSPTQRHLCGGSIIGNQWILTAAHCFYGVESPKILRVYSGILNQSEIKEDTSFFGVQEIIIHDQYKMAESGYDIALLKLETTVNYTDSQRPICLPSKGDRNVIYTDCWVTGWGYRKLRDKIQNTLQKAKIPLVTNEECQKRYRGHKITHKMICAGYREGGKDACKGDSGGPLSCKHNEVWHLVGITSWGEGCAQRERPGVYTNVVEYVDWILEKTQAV
purified human Factor XIa, sequence (P03951 19-387 partner): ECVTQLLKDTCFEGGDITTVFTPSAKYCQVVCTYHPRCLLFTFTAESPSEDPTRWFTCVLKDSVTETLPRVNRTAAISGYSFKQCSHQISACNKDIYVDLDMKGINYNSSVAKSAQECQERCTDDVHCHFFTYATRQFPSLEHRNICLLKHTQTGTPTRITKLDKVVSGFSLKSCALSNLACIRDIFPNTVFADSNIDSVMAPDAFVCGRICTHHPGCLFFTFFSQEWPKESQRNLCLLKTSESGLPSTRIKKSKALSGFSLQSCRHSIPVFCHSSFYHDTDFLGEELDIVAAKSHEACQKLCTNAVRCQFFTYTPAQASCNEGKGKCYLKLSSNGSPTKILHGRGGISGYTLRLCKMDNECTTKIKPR

For test [2], the target named is purified Human plasma Kallikrein (Homo sapiens (Human), UniProt P03952). Nature of the test: Kallikrein Assay. In kind it is biochemical. Particulars: purified Human plasma Kallikrein 0.5 nM; substrate Acetyl-K-P-R-AFC; 50 mM HEPES pH 7.4; Ki from IC50 by Cheng Prusoff. The gist of the method: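 Purified human plasma kallikrein (0.5 nM) with fluorogenic Ac-K-P-R-AFC ([…]) in 50 mM HEPES pH 7.4, 150 mM NaCl, 5 mM CaCl2, 0.1% PEG 8000, at rt or 37 °C. Substrate hydrolysis rate read with and without inhibitor; IC50 from four-parameter logistic fit, converted to Ki by Cheng–Prusoff.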
purified Human plasma Kallikrein, sequence (P03952 391-638): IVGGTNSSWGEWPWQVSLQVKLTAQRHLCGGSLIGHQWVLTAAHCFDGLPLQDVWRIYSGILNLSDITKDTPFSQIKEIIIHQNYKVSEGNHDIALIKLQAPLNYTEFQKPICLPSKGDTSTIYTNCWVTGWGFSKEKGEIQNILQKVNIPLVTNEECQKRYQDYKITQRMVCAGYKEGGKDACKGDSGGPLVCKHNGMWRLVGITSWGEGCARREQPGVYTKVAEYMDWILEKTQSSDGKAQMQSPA
purified Human plasma Kallikrein, sequence (P03952 20-390 partner): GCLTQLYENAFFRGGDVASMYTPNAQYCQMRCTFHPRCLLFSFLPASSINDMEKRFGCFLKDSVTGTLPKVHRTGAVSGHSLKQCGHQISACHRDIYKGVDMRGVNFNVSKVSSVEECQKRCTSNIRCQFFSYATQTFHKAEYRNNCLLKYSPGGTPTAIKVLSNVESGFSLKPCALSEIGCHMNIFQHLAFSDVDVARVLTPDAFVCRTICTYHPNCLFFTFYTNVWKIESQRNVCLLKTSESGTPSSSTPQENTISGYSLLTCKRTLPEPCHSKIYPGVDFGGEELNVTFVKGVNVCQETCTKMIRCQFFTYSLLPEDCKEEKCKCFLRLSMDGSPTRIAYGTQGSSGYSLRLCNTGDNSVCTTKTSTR

As usually defined, the Ki is the equilibrium dissociation constant of an inhibitor or competing ligand from its target. Take `O=C1CCCCC(c2ccc(-c3c(-n4cnnn4)ccc(Cl)c3F)c[n+]2[O-])c2cccc(c2)-c2cc(C(=O)O)ccc2N1` (single isomer, unassigned) [Example 5-a, 2-(2^5-carboxy-4-oxo-3-aza-1(1,3),2(1,2)-dibenzenacyclononaphane-9-yl)-5-(3-chloro-2-fluoro-6-(1H-tetrazol-1-yl)phenyl)pyridine 1-oxide]: the Ki in test [1] worked out at 0.13 nM; in test [2] it was 3.15 nM.

Turning to `O=C1CCCC[C@H](c2ccc(-c3cc(Cl)ccc3-n3cnnn3)c[n+]2[O-])c2cccc(c2)-c2cc(F)ccc2N1` [Example 2-a, (S) 5-(5-chloro-2-(1H-tetrazol-1-yl)phenyl)-2-(2^5-fluoro-4-oxo-3-aza-1(1,3),2(1,2)-dibenzenacyclononaphane-9-yl)pyridine 1-oxide], the values for the inhibition constant Ki in test [1] and in test [2] were 0.09 nM and 2.7 nM, respectively.

For the compound `COC(=O)Nc1ccc2c(c1)NC(=O)CCCCC(c1ccc(-c3cc(Cl)ccc3-n3cnnn3)cn1)c1cc-2ncn1` (stereo not drawn) [Example 65, methyl (9-(5-(5-chloro-2-(1h-tetrazol-1-yl)phenyl)pyridin-2-yl)-4-oxo-3-aza-1(4,6)-pyrimidina-2(1,2)-benzenacyclononaphane-2^4-yl)carbamate], the Ki worked out at 2.9 nM in test [1] and 6 nM in test [2].

As for `COC(=O)Nc1ccc2c(c1)NC(=O)CCCCC(c1ccc(-c3c(F)ccc(Cl)c3F)c[n+]1[O-])c1nc-2c[nH]1` (single isomer, unassigned) [Example 96-a, (Z)-5-(3-chloro-2,6-difluorophenyl)-2-(2^4-((methoxycarbonyl)amino)-4-oxo-1^1H-3-aza-1(4,2)-imidazola-2(1,2)-benzenacyclononaphane-9-yl)pyridine 1-oxide], the Ki in test [1] came out at 0.53 nM; in test [2] it was 0.6 nM.

For `COC(=O)Nc1ccc2c(c1)NC(=O)CCCCC(c1ccc(-c3c(F)ccc(Cl)c3F)c[n+]1[O-])c1cc-2[n+]([O-])cc1F` (stereo not drawn) [Example 82, 9-(5-(3-chloro-2,6-difluorophenyl)-1-oxidopyridin-2-yl)-1^5-fluoro-2^4-((methoxycarbonyl)amino)-4-oxo-3-aza-1(2,4)-pyridin-1-iuma-2(1,2)-benzenacyclononaphane 1^1-oxide], the Ki worked out at 3.7 nM in test [1] and 9.58 nM in test [2].

Regarding `Nc1ccc2c(c1)NC(=O)CCCCC(c1ccc(-c3c(F)ccc(Cl)c3F)c[n+]1[O-])c1cccc-2c1` (single isomer, unassigned) [Example 43-a, 2-(2^4-amino-4-oxo-3-aza-1(1,3),2(1,2)-dinenzenacyclononaphane-9-yl)-5-(3-chloro-2,6-difluorophenyl)pyridine 1-oxide], the inhibitory constant (Ki) is 1.7 nM in test [1] and 7 nM in test [2].

Turning to `COC(=O)Nc1ccc2c(c1)NC(=O)CCCC[C@H](c1ccc(-c3c(F)ccc(Cl)c3F)c[n+]1[O-])c1cc(F)c(F)c-2c1` (single isomer, unassigned) [Example 69], the Ki is 1.87 nM in test [1] and 6.79 nM in test [2].

`O=C1CCCC[C@H](c2ccc(-c3c(F)ccc(Cl)c3F)c[n+]2[O-])c2cccc(c2)-c2ccc(Nc3cccnc3)cc2N1` [Example 47, 5-(3-chloro-2,6-difluorophenyl)-2-(4-oxo-2^4-(pyridin-3-ylamino)-3-aza-1(1,3),2(1,2)-dinenzenacyclononaphane-9-yl)pyridine 1-oxide]: the inhibition constant Ki in test [1] stood at 1.89 nM; in test [2], 5.01 nM.

Regarding `COC(=O)Nc1ccc2c(c1)NC(=O)[C@@H](C)CCC[C@@H](c1ccc(-c3c(F)cccc3F)c[n+]1[O-])c1nc-2c(C)[nH]1` (single isomer, unassigned) [Example 143-c], the Ki in test [1] is 1.4 nM; in test [2] it was 5.92 nM.
